Results on 12 compounds are retold here after US20260098061A1, “EPHA2-BINDING PENDING PEPTIDE AND COMPOSITION COMPRISING SAME” (PeptiDream Inc., priority 2022, published 2026).

In the assay the target is T1, Recombinant Human EphA2 Fc Protein (Homo sapiens, UniProt P29317).
T1 construct: purchased Elabscience
The experiment in a line: SPR interaction analysis (Biacore T200), kinetics of peptides against EphA2. The format is binding. The conditions noted are these: Recombinant Human EphA2 Fc Protein captured by Human Antibody Capture kit; single-cycle kinetics; 25° C.; HBS-P+ buffer with 1% DMSO. An outline of the steps: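 On a Biacore T200 at 25° C, Fc-tagged human EphA2 was captured via anti-human antibody; peptides ran as five serial dilutions in HBS-P+ pH 7.4 with 1% DMSO by single-cycle kinetics. Baseline-subtracted data fitted for ka and kd, from which KD was derived.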

Numbered stars: 1 amine (or outer) side, 2 acyl side, 3 side chain; on linkers, the order of the positions; unused ones are H or OH. Bridge positions count the residues as written; N and C are the ends. Square brackets hold non-standard residues; d marks the D form. Side chains are listed from the residue outwards. Peptide text beside a SMILES is read from it. * marks the point of attachment. NH(1-deoxy-D-glucityl) = OC[C@@H](O)[C@@H](O)[C@H](O)[C@@H](O)CN*; NMePhe(4-Cl) = CN[C@@H](Cc1ccc(Cl)cc1)C(=O)O; Piperazinyl(4-CH2COOH) = O=C(O)CN1CCN(*)CC1; Trp(1-Me) = Cn1cc(C[C@H](N)C(=O)O)c2ccccc21; NMe3Pal = CN[C@@H](Cc1cccnc1)C(=O)O; NMeF = CN[C@@H](Cc1ccccc1)C(=O)O; Gly(cBu) = N[C@H](C(=O)O)C1CCC1; NMeE = CN[C@@H](CCC(=O)O)C(=O)O; Aad = N[C@@H](CCCC(=O)O)C(=O)O; dAhp(2) = CCCCC[C@@H](N)C(=O)O; Chg = N[C@H](C(=O)O)C1CCCCC1; CO = O=C([*:1])[*:2] A value given as a limit tells only on which side of the number the result lay.

Usually Kd stands for a measure of binding affinity in units of concentration. Turning to `C[C@H]1NC(=O)CSC[C@@H](C(N)=O)NC(=O)[C@H](CCCC(N)=O)NC(=O)[C@H]([C@@H](C)O)NC(=O)[C@H](Cc2cn(C)c3ccccc23)NC(=O)[C@H](CCC(=O)NC[C@H](O)[C@@H](O)[C@H](O)[C@H](O)CO)NC(=O)[C@H](Cc2cn(C)c3ccccc23)NC(=O)[C@H](Cc2ccccc2)N(C)C(=O)[C@H](CCCC(N)=O)NC(=O)[C@H](C2CCC2)NC(=O)[C@H](CC(N)=O)NC(=O)[C@H](Cc2ccccc2)N(C)C1=O` [PDC_EphA2-00013917, da-MeF-N-Cbg-Hgn-MeF-W1Me-QGlucamine-W1Me-T-Hgn-C-NH2] ({CH2CO}-[dA][NMeF]N[Gly(cBu)][Aad](NH2)[NMeF][Trp(1-Me)]E(NH(1-deoxy-D-glucityl))[Trp(1-Me)]T[Aad](NH2)C-NH2; thioether N-12), the Kd is less than 1 nM. To `CCCCC[C@H]1NC(=O)CSC[C@@H](C(N)=O)NC(=O)[C@H](CCCC(N)=O)NC(=O)[C@H]([C@@H](C)O)NC(=O)[C@H](Cc2cn(C)c3ccccc23)NC(=O)[C@H](CCCCNC(=O)N2CCN(CC(=O)O)CC2)NC(=O)[C@H](Cc2cn(C)c3ccccc23)NC(=O)[C@H](Cc2ccccc2)N(C)C(=O)[C@H](CCCC(=O)O)NC(=O)[C@H](CC(C)C)NC(=O)[C@H](CC(N)=O)NC(=O)[C@H](Cc2cccnc2)N(C)C1=O` [PDC_EphA2-00018526, dahp-Me3Py-N-L-Hgl-MeF-W1Me-KCOpipzaa-W1Me-T-Hgn-C-NH2] ({CH2CO}-[dAhp(2)][NMe3Pal]NL[Aad][NMeF][Trp(1-Me)]K([CO-Piperazinyl(4-CH2COOH)])[Trp(1-Me)]T[Aad](NH2)C-NH2; thioether N-12) belongs less than 1 nM.

As to `CC(C)C[C@@H]1NC(=O)[C@H](CC(N)=O)NC(=O)[C@H](Cc2cccnc2)N(C)C(=O)[C@@H](C)NC(=O)CSC[C@@H](C(N)=O)NC(=O)[C@H](CCCC(N)=O)NC(=O)[C@H]([C@@H](C)O)NC(=O)[C@H](Cc2cn(C)c3ccccc23)NC(=O)[C@H](CCCCNC(=O)N2CCN(CC(=O)O)CC2)NC(=O)[C@H](Cc2cn(C)c3ccccc23)NC(=O)[C@H](Cc2ccc(Cl)cc2)N(C)C(=O)[C@H](CCCC(=O)O)NC1=O` [PDC_EphA2-00018527, da-Me3Py-N-L-Hgl-MeF4C-W1Me-KCOpipzaa-W1Me-T-Hgn-C-NH2] ({CH2CO}-[dA][NMe3Pal]NL[Aad][NMePhe(4-Cl)][Trp(1-Me)]K([CO-Piperazinyl(4-CH2COOH)])[Trp(1-Me)]T[Aad](NH2)C-NH2; thioether N-12), the Kd was less than 1 nM. As for `CNC(=O)C[C@@H]1NC(=O)[C@H]([C@@H](C)O)NC(=O)[C@H](Cc2cn(C)c3ccccc23)NC(=O)[C@H](CCCCNC(=O)N2CCN(CC(=O)O)CC2)NC(=O)[C@H](Cc2cn(C)c3ccccc23)NC(=O)[C@H](Cc2ccccc2)N(C)C(=O)[C@H](CCCC(=O)O)NC(=O)[C@H](CC(C)C)NC(=O)[C@H](CC(N)=O)NC(=O)[C@H](Cc2cccnc2)N(C)C(=O)[C@@H](C)NC(=O)CSC[C@@H](C(N)=O)NC1=O` [PDC_EphA2-00018528, da-Me3Py-N-L-Hgl-MeF-W1Me-KCOpipzaa-W1Me-T-Nmm-C-NH2] ({CH2CO}-[dA][NMe3Pal]NL[Aad][NMeF][Trp(1-Me)]K([CO-Piperazinyl(4-CH2COOH)])[Trp(1-Me)]TD(NHMe)C-NH2; thioether N-12), the figure is less than 1 nM. Take `CC(C)C[C@@H]1NC(=O)[C@H](CC(N)=O)NC(=O)[C@H](Cc2cccnc2)N(C)C(=O)[C@@H](C)NC(=O)CSC[C@@H](C(N)=O)NC(=O)[C@H](CC(=O)N(C)C)NC(=O)[C@H]([C@@H](C)O)NC(=O)[C@H](Cc2cn(C)c3ccccc23)NC(=O)[C@H](CCCCNC(=O)N2CCN(CC(=O)O)CC2)NC(=O)[C@H](Cc2cn(C)c3ccccc23)NC(=O)[C@H](Cc2ccccc2)N(C)C(=O)[C@H](CCCC(=O)O)NC1=O` [PDC_EphA2-00018529, da-Me3Py-N-L-Hgl-MeF-W1Me-KCOpipzaa-W1Me-T-Ndm-C-NH2] ({CH2CO}-[dA][NMe3Pal]NL[Aad][NMeF][Trp(1-Me)]K([CO-Piperazinyl(4-CH2COOH)])[Trp(1-Me)]TD(NMe2)C-NH2; thioether N-12): the Kd is less than 1 nM. Regarding `CCCCC[C@H]1NC(=O)CSC[C@@H](C(N)=O)NC(=O)[C@H](CCCC(N)=O)NC(=O)[C@H]([C@@H](C)O)NC(=O)[C@H](Cc2cn(C)c3ccccc23)NC(=O)[C@H](CCCCNC(=O)N2CCN(CC(=O)O)CC2)NC(=O)[C@H](Cc2cn(C)c3ccccc23)NC(=O)[C@H](CCC(=O)O)N(C)C(=O)[C@H](CCCC(N)=O)NC(=O)[C@H](CC(C)C)NC(=O)[C@H](CC(N)=O)NC(=O)[C@H](Cc2cccnc2)N(C)C1=O` [PDC_EphA2-00018530, dahp-Me3Py-N-L-Hgn-MeE-W1Me-KCOpipzaa-W1Me-T-Hgn-C-NH2] ({CH2CO}-[dAhp(2)][NMe3Pal]NL[Aad](NH2)[NMeE][Trp(1-Me)]K([CO-Piperazinyl(4-CH2COOH)])[Trp(1-Me)]T[Aad](NH2)C-NH2; thioether N-12), the Kd was less than 1 nM.

As for `CNC(=O)C[C@@H]1NC(=O)[C@H](CC(C)C)NC(=O)[C@H](CC(N)=O)NC(=O)[C@H](Cc2cccnc2)N(C)C(=O)[C@@H](C)NC(=O)CSC[C@@H](C(N)=O)NC(=O)[C@H](CCCC(N)=O)NC(=O)[C@H]([C@@H](C)O)NC(=O)[C@H](Cc2cn(C)c3ccccc23)NC(=O)[C@H](CCCCNC(=O)N2CCN(CC(=O)O)CC2)NC(=O)[C@H](Cc2cn(C)c3ccccc23)NC(=O)[C@H](CCC(=O)O)N(C)C1=O` [PDC_EphA2-00018531, da-Me3Py-N-L-Nmm-MeE-W1Me-KCOpipzaa-W1Me-T-Hgn-C-NH2] ({CH2CO}-[dA][NMe3Pal]NLD(NHMe)[NMeE][Trp(1-Me)]K([CO-Piperazinyl(4-CH2COOH)])[Trp(1-Me)]T[Aad](NH2)C-NH2; thioether N-12), the Kd is less than 1 nM. As for `CC(C)C[C@@H]1NC(=O)[C@H](CC(N)=O)NC(=O)[C@H](Cc2cccnc2)N(C)C(=O)[C@@H](C)NC(=O)CSC[C@@H](C(N)=O)NC(=O)[C@H](CCCC(N)=O)NC(=O)[C@H]([C@@H](C)O)NC(=O)[C@H](Cc2cn(C)c3ccccc23)NC(=O)[C@H](CCCCNC(=O)N2CCN(CC(=O)O)CC2)NC(=O)[C@H](Cc2cn(C)c3ccccc23)NC(=O)[C@H](CCC(=O)O)N(C)C(=O)[C@H](CC(=O)N(C)C)NC1=O` [PDC_EphA2-00018532, da-Me3Py-N-L-Ndm-MeE-W1Me-KCOpipzaa-W1Me-T-Hgn-C-NH2] ({CH2CO}-[dA][NMe3Pal]NLD(NMe2)[NMeE][Trp(1-Me)]K([CO-Piperazinyl(4-CH2COOH)])[Trp(1-Me)]T[Aad](NH2)C-NH2; thioether N-12), the figure is less than 1 nM; as for `CNC(=O)C[C@@H]1NC(=O)[C@H]([C@@H](C)O)NC(=O)[C@H](Cc2cn(C)c3ccccc23)NC(=O)[C@H](CCCCNC(=O)N2CCN(CC(=O)O)CC2)NC(=O)[C@H](Cc2cn(C)c3ccccc23)NC(=O)[C@H](CCC(=O)O)N(C)C(=O)[C@H](CCCC(N)=O)NC(=O)[C@H](CC(C)C)NC(=O)[C@H](CC(N)=O)NC(=O)[C@H](Cc2cccnc2)N(C)C(=O)[C@@H](C)NC(=O)CSC[C@@H](C(N)=O)NC1=O` [PDC_EphA2-00018533, da-Me3Py-N-L-Hgn-MeE-W1Me-KCOpipzaa-W1Me-T-Nmm-C-NH2] ({CH2CO}-[dA][NMe3Pal]NL[Aad](NH2)[NMeE][Trp(1-Me)]K([CO-Piperazinyl(4-CH2COOH)])[Trp(1-Me)]TD(NHMe)C-NH2; thioether N-12), less than 1 nM; as for `CC(C)C[C@@H]1NC(=O)[C@H](CC(N)=O)NC(=O)[C@H](Cc2cccnc2)N(C)C(=O)[C@@H](C)NC(=O)CSC[C@@H](C(N)=O)NC(=O)[C@H](CC(=O)N(C)C)NC(=O)[C@H]([C@@H](C)O)NC(=O)[C@H](Cc2cn(C)c3ccccc23)NC(=O)[C@H](CCCCNC(=O)N2CCN(CC(=O)O)CC2)NC(=O)[C@H](Cc2cn(C)c3ccccc23)NC(=O)[C@H](CCC(=O)O)N(C)C(=O)[C@H](CCCC(N)=O)NC1=O` [PDC_EphA2-00018534, da-Me3Py-N-L-Hgn-MeE-W1Me-KCOpipzaa-W1Me-T-Ndm-C-NH2] ({CH2CO}-[dA][NMe3Pal]NL[Aad](NH2)[NMeE][Trp(1-Me)]K([CO-Piperazinyl(4-CH2COOH)])[Trp(1-Me)]TD(NMe2)C-NH2; thioether N-12), less than 1 nM. As for `CCCCC[C@H]1NC(=O)CSC[C@@H](C(N)=O)NC(=O)[C@H](CCCC(N)=O)NC(=O)[C@H]([C@@H](C)O)NC(=O)[C@H](Cc2cn(C)c3ccccc23)NC(=O)[C@H](CCCCNC(=O)N2CCN(CC(=O)O)CC2)NC(=O)[C@H](Cc2cn(C)c3ccccc23)NC(=O)[C@H](Cc2ccccc2)N(C)C(=O)[C@H](CCCC(N)=O)NC(=O)[C@H](C2CCCCC2)NC(=O)[C@H](CC(N)=O)NC(=O)[C@H](Cc2cccnc2)N(C)C1=O` [PDC_EphA2-00018535, dahp-Me3Py-N-Chg-Hgn-MeF-W1Me-KCOpipzaa-W1Me-T-Hgn-C-NH2] ({CH2CO}-[dAhp(2)][NMe3Pal]N[Chg][Aad](NH2)[NMeF][Trp(1-Me)]K([CO-Piperazinyl(4-CH2COOH)])[Trp(1-Me)]T[Aad](NH2)C-NH2; thioether N-12), the figure is less than 1 nM. `CNC(=O)C[C@@H]1NC(=O)[C@H](C2CCCCC2)NC(=O)[C@H](CC(N)=O)NC(=O)[C@H](Cc2cccnc2)N(C)C(=O)[C@@H](C)NC(=O)CSC[C@@H](C(N)=O)NC(=O)[C@H](CCCC(N)=O)NC(=O)[C@H]([C@@H](C)O)NC(=O)[C@H](Cc2cn(C)c3ccccc23)NC(=O)[C@H](CCCCNC(=O)N2CCN(CC(=O)O)CC2)NC(=O)[C@H](Cc2cn(C)c3ccccc23)NC(=O)[C@H](Cc2ccccc2)N(C)C1=O` [PDC_EphA2-00018536, da-Me3Py-N-Chg-Nmm-MeF-W1Me-KCOpipzaa-W1Me-T-Hgn-C-NH2] ({CH2CO}-[dA][NMe3Pal]N[Chg]D(NHMe)[NMeF][Trp(1-Me)]K([CO-Piperazinyl(4-CH2COOH)])[Trp(1-Me)]T[Aad](NH2)C-NH2; thioether N-12): the Kd was less than 1 nM.
